Experimental data as given in patent US6635250B2, “Use of certain metalloproteinase inhibitors for treating nerve disorders mediated by nucleus pulpsus” (A+ Science AB (publ), priority 1998, dated 2003).

Tests used:
[1] = test system: sacrococcygeal cauda equina; test: Series-3: nerve root conduction velocity seven days after autologous nucleus pulposus application; format: in vivo; details: pig, systemic treatment
Protocol: Series-3: Thirteen pigs had autologous nucleus pulposus placed onto their sacrococcygeal cauda equina similar to series-2. Five pigs (bodyweight 25 kg) received REMICADE® (infliximab) 100 mg i.v. preoperatively, and 8 pigs received ENBREL® (etanercept) 12.5 mg s.c. preoperatively and additionally 12.5 mg s.c. three days after the operation. Seven days after the nucleus pulposus-application the nerve root conduction velocity was determined over the application zone by local electrical stimulation according to series-2. Series-3: Thirteen pigs had autologous nucleus pulposus placed onto their sacrococcygeal cauda equina similar to series-2. […] Seven days after the nucleus pulposus-application the nerve root conduction velocity was determined over the application zone by local electrical stimulation according to series-2. […] The statistical difference between the groups, infliximab, and etanercept, nucleus pulposus without treatment (positive control from previous data) and application of retroperitoneal fat (negative control from previous data) was assessed by using ANOVA and Fisher's PLSD at 5%.

nerve roots = details: cited from earlier work
[2] = test system: inducible nitrogen oxide synthetase; details: cited from earlier work

Compound: etanercept [EMBREL ®]
- block of nucleus pulposus induced nerve injury (nerve conduction velocity) [1]: blocked the nucleus pulposus induced nerve injury efficiently

Compound: CCN(CC)CC(=O)Nc1c(C)cccc1C [lidocaine]
- block of nucleus pulposus-related effects (nerve roots): slightly less efficiently

Compound: infliximab [REMICADE ®]
- block of nucleus pulposus induced nerve injury (nerve conduction velocity) [1]: blocked the nucleus pulposus induced nerve injury efficiently

Compound: N=C(N)NN [Aminoguanidine]
- inhibition of release of nitrogen oxide (NO) at nerve root injuries [2]: inhibit the release of nitrogen oxide (NO)

Compound: COc1ccc2c(c1)c(CC(=O)O)c(C)n2C(=O)c1ccc(Cl)cc1 [indomethacin]
- block of nucleus pulposus-related effects (nerve roots): slightly less efficiently
